Laboratory results reported in ChEMBL document CHEMBL1201862, “PubChem BioAssay data set” (2004).
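Growth conditions: 96-well plates. Treatment: test compound, 48 hours, 5 concentrations. Analysis: linear interpolation between bracketing concentrations; unreached endpoints set to highest concentration. Abbreviation: GI50, concentration required for 50% inhibition of growth.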 Active and inactive are the calls of the source. No stated cut-off is given here; in the data, active = GI50 up to about 1.1 µM and inactive = higher.

Legend:
Assay in all cases: inhibition of tumour cell growth, NCI panel, 48 h
SW-620 = test system: SW-620
CAKI-1 = test system: CAKI-1
SK-MEL-5 = test system: SK-MEL-5
KM12 = test system: KM12
ACHN = test system: ACHN
MOLT-4 = test system: MOLT-4
NCI-H522 = test system: NCI-H522
CCRF-CEM = test system: CCRF-CEM
SN12C = test system: SN12C
K562 = test system: K562
MDA-MB-435 = test system: MDA-MB-435
U-251 = test system: U-251
HOP-62 = test system: HOP-62
PC-3 = test system: PC-3
OVCAR-3 = test system: OVCAR-3
EKVX = test system: EKVX
MDA-MB-231 = test system: MDA-MB-231
RPMI-8226 = test system: RPMI-8226

| SMILES | GI50 (SW-620) | GI50 (CAKI-1) | GI50 (SK-MEL-5) | GI50 (KM12) | GI50 (ACHN) | GI50 (MOLT-4) | GI50 (NCI-H522) | GI50 (CCRF-CEM) | GI50 (SN12C) | GI50 (K562) | GI50 (MDA-MB-435) | GI50 (U-251) | GI50 (HOP-62) | GI50 (PC-3) | GI50 (OVCAR-3) | GI50 (EKVX) | GI50 (MDA-MB-231) | GI50 (RPMI-8226) |
| --- | --- | --- | --- | --- | --- | --- | --- | --- | --- | --- | --- | --- | --- | --- | --- | --- | --- | --- |
| Cc1cn(C2OC(CO)C(O)C2F)c(=O)[nH]c1=O (configuration not stated) | > 100 µM (inactive) | > 100 µM (inactive) | > 100 µM (inactive) | > 100 µM (inactive) | 89.7 µM (inactive) | 64.3 µM (inactive) | 19.3 µM (inactive) | 12.2 µM (inactive) | > 100 µM (inactive) | 59.7 µM (inactive) | > 100 µM (inactive) | > 100 µM (inactive) | 95.3 µM (inactive) | > 100 µM (inactive) | > 100 µM (inactive) | > 100 µM (inactive) | > 100 µM (inactive) |  |
| COc1ccc(-c2cn3c(nc4ccccc43)c(/C=C/c3cccs3)n2)cc1 | 41.1 µM (inactive) |  | 15.8 µM (inactive) | 11.9 µM (inactive) | > 100 µM (inactive) |  |  |  | > 100 µM (inactive) | 9.48 µM (inactive) | 4.28 µM (inactive) | 53.1 µM (inactive) | 83 µM (inactive) |  | 21.6 µM (inactive) |  | > 100 µM (inactive) | 15.4 µM (inactive) |
| O=C1NC(Nc2ccccc2Cl)=N/C1=C\c1c(Cl)cccc1Cl | 37.5 µM (inactive) | 27.8 µM (inactive) | 20.3 µM (inactive) | 23.7 µM (inactive) | 50.5 µM (inactive) | 27 µM (inactive) | 18.7 µM (inactive) | 34.4 µM (inactive) | 28.2 µM (inactive) | 17.1 µM (inactive) | 11 µM (inactive) | 8.43 µM (inactive) | 39.7 µM (inactive) | 25.1 µM (inactive) | 27 µM (inactive) | 31 µM (inactive) |  | 20.6 µM (inactive) |
| O=[N+]([O-])C(=C(N1CCOCC1)N1CCOCC1)/C(Cl)=C(\Cl)Br | 15.5 µM (inactive) |  |  | 31.4 µM (inactive) | 24.8 µM (inactive) | 15.3 µM (inactive) | 2.41 µM (inactive) | 2.65 µM (inactive) | 17 µM (inactive) | 15.2 µM (inactive) |  | 19 µM (inactive) | > 100 µM (inactive) | 35 µM (inactive) | 14.5 µM (inactive) | 17.1 µM (inactive) | 17.9 µM (inactive) | 14.5 µM (inactive) |
| NC1CC(Cl)c2c(Cl)sc(Cl)c21 (configuration not stated) | > 100 µM (inactive) | > 100 µM (inactive) | > 100 µM (inactive) | > 100 µM (inactive) | > 100 µM (inactive) | > 100 µM (inactive) | < 0.01 µM (active) | 34 µM (inactive) | > 100 µM (inactive) | > 100 µM (inactive) | > 100 µM (inactive) | > 100 µM (inactive) | > 100 µM (inactive) |  | > 100 µM (inactive) | > 100 µM (inactive) | > 100 µM (inactive) |  |
| Cc1nn(C(=O)Cc2ccccc2)c2c1C(c1ccc([N+](=O)[O-])cc1)SC(=N)N2 (configuration not stated) | > 100 µM (inactive) | > 100 µM (inactive) | > 100 µM (inactive) | > 100 µM (inactive) | > 100 µM (inactive) | > 100 µM (inactive) | > 100 µM (inactive) | > 100 µM (inactive) | > 100 µM (inactive) | > 100 µM (inactive) | > 100 µM (inactive) |  | > 100 µM (inactive) | > 100 µM (inactive) |  | > 100 µM (inactive) | > 100 µM (inactive) | > 100 µM (inactive) |
| c1ccc(CN2CCC3(CC2)SSC2(CCN(Cc4ccccc4)CC2)S3)cc1 | > 100 µM (inactive) | 26.9 µM (inactive) |  | 45.3 µM (inactive) | > 100 µM (inactive) | > 100 µM (inactive) |  | 65.9 µM (inactive) | 87.1 µM (inactive) | 71.6 µM (inactive) | 31.3 µM (inactive) | > 100 µM (inactive) | > 100 µM (inactive) | > 100 µM (inactive) | 76.4 µM (inactive) |  | > 100 µM (inactive) | 20.1 µM (inactive) |
| Nc1ncc2c(n1)-c1ccccc1OC2N1CCCCC1 (configuration not stated) | > 100 µM (inactive) | > 100 µM (inactive) | > 100 µM (inactive) | > 100 µM (inactive) | > 100 µM (inactive) | > 100 µM (inactive) | > 100 µM (inactive) | > 100 µM (inactive) | > 100 µM (inactive) |  | > 100 µM (inactive) | > 100 µM (inactive) |  | > 100 µM (inactive) | > 100 µM (inactive) | 95.1 µM (inactive) | > 100 µM (inactive) | > 100 µM (inactive) |
| COc1c(F)c(F)c(C(=O)/C=C2\Nc3ccccc3NC2=O)c(F)c1F | 8.38 µM (inactive) | > 10 µM (inactive) | 8.95 µM (inactive) | 8.22 µM (inactive) |  | > 10 µM (inactive) |  | > 10 µM (inactive) | > 10 µM (inactive) | > 10 µM (inactive) | > 10 µM (inactive) |  | 4.41 µM (inactive) | 7.57 µM (inactive) |  | > 10 µM (inactive) | > 10 µM (inactive) | > 10 µM (inactive) |
| OC(c1ccc(F)cc1)C(F)(F)c1nc2ccccc2o1 (configuration not stated) | > 100 µM (inactive) | 87.5 µM (inactive) | 50 µM (inactive) | 44.3 µM (inactive) | > 100 µM (inactive) | 46.6 µM (inactive) |  | > 100 µM (inactive) |  | 30.8 µM (inactive) | > 100 µM (inactive) | > 100 µM (inactive) | 62.5 µM (inactive) | > 100 µM (inactive) |  | > 100 µM (inactive) | 83.8 µM (inactive) | 90.6 µM (inactive) |
| N#CC1C(=S)NC(c2ccccc2)=CC12CCCCC2 (configuration not stated) | 38.8 µM (inactive) | 47.3 µM (inactive) | 25.1 µM (inactive) | 22.9 µM (inactive) | 25.1 µM (inactive) | 20.7 µM (inactive) | 22.1 µM (inactive) | 25.5 µM (inactive) | 35 µM (inactive) | 26.5 µM (inactive) | 18.2 µM (inactive) | 31.1 µM (inactive) |  | 38 µM (inactive) |  | 17.8 µM (inactive) | 38.9 µM (inactive) | 23.3 µM (inactive) |
| O=C(/C=C/c1ccc(C(F)(F)F)cc1)c1c([O-])on[n+]1-c1ccccc1 | 1.37 µM (inactive) | 0.288 µM (active) | 2.8 µM (inactive) | 1.83 µM (inactive) | 1.51 µM (inactive) | 0.284 µM (active) |  | 0.108 µM (active) | 2.23 µM (inactive) | 0.395 µM (active) | 1.86 µM (inactive) | 1.83 µM (inactive) | 3.95 µM (inactive) | 3.19 µM (inactive) | 1.58 µM (inactive) | 2.24 µM (inactive) | 4.53 µM (inactive) | 0.261 µM (active) |
| CCOc1cc(NC(C)=O)ccc1C(=O)NNS(=O)(=O)c1ccc(Cl)cc1Cl | > 50 µM (inactive) | > 50 µM (inactive) | 14.6 µM (inactive) | 31.5 µM (inactive) | > 50 µM (inactive) | 8.75 µM (inactive) | > 50 µM (inactive) | > 50 µM (inactive) | > 50 µM (inactive) | 0.232 µM (active) | 12.7 µM (inactive) |  | > 50 µM (inactive) | > 50 µM (inactive) | > 50 µM (inactive) | > 50 µM (inactive) |  | 7.48 µM (inactive) |
| CCOC(=O)c1c(SC)nc(-c2ccc(Cl)cc2)sc1=N.[O-][Cl+3]([O-])([O-])O | 48 µM (inactive) | 35.5 µM (inactive) | 15.2 µM (inactive) | 30.8 µM (inactive) | 40.1 µM (inactive) | 26.4 µM (inactive) |  | 39.9 µM (inactive) | 44.4 µM (inactive) | 34.4 µM (inactive) | 34 µM (inactive) | 37.6 µM (inactive) | 30.1 µM (inactive) | 26.1 µM (inactive) | 33.2 µM (inactive) | 22 µM (inactive) | 41.7 µM (inactive) | 37.2 µM (inactive) |
| NS(=O)(=O)c1nnc(NS(=O)(=O)c2cccc3cccnc23)s1 | > 100 µM (inactive) | > 100 µM (inactive) | > 100 µM (inactive) | > 100 µM (inactive) | > 100 µM (inactive) | > 100 µM (inactive) |  | > 100 µM (inactive) | > 100 µM (inactive) | > 100 µM (inactive) | > 100 µM (inactive) | > 100 µM (inactive) | > 100 µM (inactive) |  | > 100 µM (inactive) | > 100 µM (inactive) | > 100 µM (inactive) | > 100 µM (inactive) |
| CN(C)CCNc1ccc([N+](=O)[O-])c2sc3ccccc3c(=O)c12 | 2.43 µM (inactive) |  | 8.63 µM (inactive) | 5.19 µM (inactive) | 2.51 µM (inactive) | 0.706 µM (active) | 1.56 µM (inactive) | 2.26 µM (inactive) | 4.46 µM (inactive) | 4.43 µM (inactive) | 5.19 µM (inactive) | 3.48 µM (inactive) | 2.81 µM (inactive) | 4.11 µM (inactive) | 3.68 µM (inactive) | 4.5 µM (inactive) | 1.99 µM (inactive) | 2.64 µM (inactive) |
| O=C1CC(c2ccccc2)Oc2ccccc21 (configuration not stated) [FLAVANONE] | > 10 µM (inactive) | 48.3 µM (inactive) | 25.1 µM (inactive) | 35.7 µM (inactive) | 47.6 µM (inactive) | 13.7 µM (inactive) |  | 24.2 µM (inactive) |  | 12.6 µM (inactive) | 31.9 µM (inactive) | 38.6 µM (inactive) | 48.4 µM (inactive) | 38.5 µM (inactive) |  | 38.9 µM (inactive) | 32.2 µM (inactive) | 17.1 µM (inactive) |
